Measured values reported in US20120258974A1, “USE OF A2B ADENOSINE RECEPTOR ANTAGONISTS FOR TREATING HEART FAILURE AND ARRHYTHMIA IN POST-MYOCARDIAL INFARCTION PATIENTS” (GILEAD SCIENCES, INC., priority 2011, published 2012).
“Also recorded” adds a separate entry of the source.

Tests used:
[1] = test system: CD45 expression (leukocytes) in the heart; test: Inflammatory infiltrate: CD45 expression in the heart by Western blot (Example 4); assay type: in vivo, mouse; details: 72 hours after AMI; 4 mg/kg i.p. twice daily
Protocol: (§1) Adult out-bred male CD1 mice (8-12 weeks of age) were supplied by Harlan Sprague Dawley (Indianapolis, Ind.). The experiments were conducted under the guidelines of laboratory animals for biomedical research published by National Institutes of Health (No. 85-23, revised 1996). The study protocol was approved by the Virginia Commonwealth University Institutional Animal Care and Use Committee. Experimental AMI was induced by permanent coronary artery ligation in order to induce a large non-reperfused infarct involving approximately 30% of the left ventricle and leading to an ischemic dilated cardiomyopathy (Mezzaroma et al. Proc Natl Acad Sci 2011—in press and Abbate et al. Circulation 2008; 117:2670-83). Briefly, mice were orotracheally intubated under anesthesia (pentobarbital 50 to 70 mg/kg), placed in the right lateral decubitus position, then subjected to a left thoracotomy, pericardiectomy, and ligation of the proximal left coronary artery. The chest was closed and the animals were allowed to recover. […]
In order to quantify the inflammatory infiltrate in the heart during AMI, this example measured CD45 expression (a marker for leukocytes) in the heart using Western Blot. […] The band intensity was determined by densitometric analysis using the Scion Image software and the results were expressed as percentage increase in intensity compared to the control sham samples.

caspase-1 = test: Caspase-1 activity in heart tissue 72 hours after surgery (Example 4); assay type: in vivo, mouse; details: 4 mg/kg i.p. twice daily from coronary ligation
Protocol: as §1, with “117:2670-83).” for “117:2670-83). Briefly, mice were orotracheally intubated under anesthesia (pentobarbital 50 to 70 mg/kg), placed in the right lateral decubitus position, then subjected to a left thoracotomy, pericardiectomy, and ligation of the proximal left coronary artery. The chest was closed and the animals were allowed to recover.”
An additional subset of mice was sacrificed 72 hours after surgery (N=4-6 per treatment group). […] The tissue activity of caspase-1 was determined by cleavage of a fluorogenic substrate (CaspACE, Promega, Madison, Wis.) (Abbate et al. Circulation 2008; 117:2670-83). […] Fluorescence was measured after 60 minutes and was expressed as arbitrary fluorescence units produced by one microgram of sample per minute (fluorescence/μg/min) and calculated as fold change compared to the caspase-1 activity in homogenates of the hearts of sham-operated mice.

[2] = test system: rats with MI (25 minutes coronary occlusion followed by reperfusion); test: Plasma biomarkers at 5 week post-MI, rat post-MI model (Example 6); assay type: in vivo
Protocol: (§2) The effects of Compound A in a rat model of post-MI remodeling and VT were determined. MI was caused by 25 minutes occlusion at the left anterior descending coronary ligation followed by reperfusion. One week later, rats were administered either vehicle or Compound A (100 mg/kg) once daily by oral gavage. Serial echocardiograms (ECHOs) to measure LV ejection fraction (LVEF), stroke volume and LV end systolic volume (LVESV) were obtained at baseline, 1 week and 5 week post-MI. Electrophysiological studies, optical mapping, histology and biomarker analysis were conducted at 5 week post-MI.

[3] = test system: rats with MI (25 minutes coronary occlusion followed by reperfusion); test: Conduction velocities in LV myocardium, optical mapping, rat post-MI model (Example 6); assay type: in vivo; details: 5 week post-MI
Protocol: as §2
Abnormal electrical impulse conduction in the infarct border zone (IBZ) is important in the pathogenesis of post-MI arrhythmias. As shown in the conduction vector maps (FIG. 13A-B), the vehicle control group has much slower conduction velocity than the Compound A treated animals. To quantify the impact of Compound A on conduction properties, conduction velocities (CVs) were measured for infarct, border, and normal zones of LV myocardium. CVs in normal zones were fastest among all zones and were similar between placebo and Compound A groups (FIG. 14A). […] Finally, CVs in IBZs of both groups were in between those of non-infarct and infarct zones.

[4] = test system: acute myocardial infarction in the mouse (male ICR mice, coronary artery ligation); test: Cardiac remodeling after coronary artery ligation in ICR mice (Example 3); assay type: in vivo
Protocol: Male ICR mice underwent coronary artery ligation or sham surgery (N=8-10 per group). A selective A2B antagonist, Compound A 4 mg/kg in a formulated dosing suspension, every 12 hours i.p., was given starting immediately after the surgery and continued for 14 days. Transthoracic echocardiography was performed prior to surgery and then 7, 14 and 28 days later. A subgroup of mice was sacrificed 72 hours after surgery and the activity of caspase-1, a key proinflammatory mediator, was measured in the cardiac tissue.

[5] = test system: human cardiac myocytes (HCM); test: NECA-induced IL-6 release from human cardiac myocytes (Example 7); assay type: cell-based; details: NECA in combination with antagonist
Protocol: This example uses human cardiac myocytes to test two other A2B adenosine receptor antagonists on their effect on NECA-induced IL-6 release.
Human cardiac myocytes (HCM) were treated with NECA alone, or in combination with Compound A, Compound B (N-[5-(1-cyclopropyl-2,6-dioxo-3-propyl-2,3,6,7-tetrahydro-1H-purin-8-yl)-pyridin-2-yl]-N-ethyl-nicotinamide, also known as ATL-801) or Compound C (2-(4-benzyloxy-phenyl)-N-[5-(2,6-dioxo-1,3-dipropyl-2,3,6,7-tetrahydro-1H-purin-8-yl)-1-methyl-1H-pyrazol-3-yl]-acetamide).

[6] = echocardiography, 4 mg/kg i.p. every 12 hours for 14 days, vs vehicle

SMILES: CCCn1c(=O)c2[nH]c(-c3cnn(Cc4cccc(C(F)(F)F)c4)c3)nc2n(CC)c1=O [Compound A, 3-ethyl-1-propyl-8-(1-(3-(trifluoromethyl)benzyl)-1H-pyrazol-4-yl)-1H-purine-2,6(3H,7H)-dione]
- intensity of the leukocyte (CD45+) infiltrate, CD45 expression at Western blot [1]: significantly reduced
- caspase-1 activation / activity in the heart during AMI (caspase-1): prevented; also recorded: nearly complete reduction
- plasma IL-6 [2]: significantly reduced
- plasma PAI-1 [2]: significantly reduced
- increase of plasma BNP ([2]; P=0.16): trend
- conduction velocities in normal zones ([3]; vs placebo): similar
- conduction velocities in IBZs ([3]; vs placebo control): significantly faster
- conduction velocities in infarct zones ([3]; vs placebo control): significantly improved
- mice that died during the 4 weeks post-surgery ([4]; 4 mg/kg i.p. every 12 hours for 14 days, vehicle 42%): 25%
- caspase-1 activity in the cardiac tissue ([4]; 72 hours after surgery, 4 mg/kg i.p. every 12 hours, vs vehicle): significantly reduced
- LV ejection fraction [4, 6]: increased
- end-diastolic diameter [4, 6]: significantly reduced
- myocardial performance index [4, 6]: significantly reduced
- effect of NECA on HCM (IL-6 release) [5]: completely abolished
